Measured values taken from patent US20210052566A1, “METHODS FOR TREATING HEPATITIS B VIRUS (HBV) INFECTION” (INSERM (INSTITUT NATIONAL DE LA SANTÉ ET DE LA RECHERCHE …, priority 2018, published 2021).

Legend:
HBV genotype D [1] = assay: De novo establishment of HBV infection/cccDNA in naive dHepaRG, genotype D (treatment before and during inoculation); assay type: cell-based, Hepatitis B virus
Method: FIG. 1. Experimental outlines. Treatment schemes: (a) Treatments in pre-infection: dHepaRG cells were treated for 24 h (at day −1) with 100 nM of PreS1 peptide (PreS1-pep) or 10 μM of 1C8, or untreated (NT). At day 0, cells were inoculated with HBV (MOI=250) or with HDV (MOI=25) in the presence of drugs for 24 h. For the tenofovir control (TDF at 10 μM), cells were treated at day 1 and 4 post-infection. Supernatant and cells were harvested at day 7 post-infection. (b) Treatments in post-infection: dHepaRG cells were inoculated with HBV (MOI=250) or with HDV (MOI=25). At days 4, 7 and 9 post infection, cells were treated with TDF 10 μM, lamivudine (3TC) at 10 μM, 1C8 10 μM or untreated (NT). Supernatant and cells were harvested at day 11 postinfection.
FIG. 7. Effect of 1C8 on de novo establishment of ccDNA in dHepaRG (genotype D). […] B) HBs and HBe secreted antigens in supernatant were quantiUied by ELISA, whereas HBV DNA contained in virions was quantified by qPCR after viral nucleic acid extraction from supernatant. […] Statistics were done by two-tailed Mann-Whitney test, with following signiUicativity: *P<0.05, **P<0.01, ***P<0.001, ****P<0.0001. nd=not determined.
Human liver progenitor HepaRG cells were cultured in Williams medium (ThermoFisher) supplemented with 10% of FBS (Perbio), Penicillin/Streptomycin (500 U/mL), glutamine (2 mM), hydrocortisone Upjohn (2.5 mg/L; Serb laboratory), insulin (5 mg/L; Sigma Aldrich). […] The multiplicity of infection (MOI; expressed as virus genome equivalent/cell) is indicated in the figure legends, but was of 100 vge/cell if not precised.
From cell culture supernatants, secreted HBe and HBs antigens were quantified by ELISA, using a chemiluminescence immunoassay kit (Autobio, China) following manufacturer's instructions. […]
A HBV standard was used for quantification of extracellular viral DNA and RNA. For cccDNA quantification total DNA was digested by T5 exonuclease (New England Biolabs) for 6 hours at 37° C. then submitted to qPCR using Taqman Fast Advanced Master Mix (Life Technologies). […]

HBV genotype D [2] = assay: HBV replication in persistently infected primary human hepatocytes (PHH); assay type: cell-based, Hepatitis B virus; conditions: 10 microM
From the text: FIG. 9. Effect of 1C8 on persistently infected primary human hepatocytes. Two different batches of PHH from two different donors were used in these experiments (Batch 1: panels A, B, and C; Batch 2: panels D, and E). A) PHH were infected with HBV genotype D at a MOI of 100 vge/cell for 4 days before being treated trice every 2-3 days with indicated molecules at a concentration of 10 microM. B) Intracellular total RNA were extracted from cells and subjected to RT-qPCR to detect HBV pgRNA and total HBV RNA. C) HBs and HBe secreted antigens in supernatant were quantified by ELISA. D) PHH were infected with HBV genotype D at a MOI of 100 vge/cell. 6 days after the infection, cells were treated five times with indicated molecules at a concentration of 10 microM. Supernatant was harvested after each treatment and cells were harvested at day 13 post infection. E) HBe and HBs secreted antigens in supernatant were quantified by ELISA. Results are the mean+SD of n=3 (panels A, B, and C) or n=4 (panels D and E).
Primary human hepatocytes (PHH) were freshly prepared from human liver resections obtained from the Centre Léon Bérard (Lyon) with French ministerial authorizations as previously described (Leycluse and Alexandre, 2010). […]
Secreted HBe and HBs antigens and intracellular HBV RNA were analyzed as described in EXAMPLE 1.

Cn1ccc(=O)c(C(=O)Nc2nsc3ccc([N+](=O)[O-])cc23)c1 [1C8, 4-pyridinonebenzisothiazole carboxamide]
inhibition at 10 µM (HBV genotype D [1]; Hepatitis B virus, dHepaRG treated before and during HBV inoculation, 10 microM): 50%
other viral markers (intracellular RNAs, HBeAg, HBsAg), genotype D (HBV genotype D [1]; dHepaRG treated before and during inoculation, 10 microM): also reduced
inhibition of cccDNA establishment compared with controls (entry inhibitor, TDF) (HBV genotype D [1]; dHepaRG treated before and during inoculation, 1C8 and TDF 10 microM, Entry Inh. 100 nM, stated for genotypes D and C together): lower than that obtained with an entry inhibitor, but higher than that obtained with a NUC
amount of intracellular viral RNAs (total and pgRNA) (HBV genotype D [2]): significant reduction
decrease of secreted viral antigens HBe and HBs (viral replication) (HBV genotype D [2]; two donors, MOI 100 vge/cell): > 60%
